This is an account of results in patent US10465171B2, “7β-hydroxysteroid dehydrogenases and their use” (PharmaZell GmbH, priority 2009, dated 2019).

Entries after “also recorded” stand apart in the source; their conditions may differ.

For assay [1], the target named is 7β-HSDH from Collinsella aerofaciens ATCC 25986 (DSM 3979) (Collinsella aerofaciens, UniProt A4ECA9). The experiment in a line: Photometric identification of 7β-HSDH activity (cell extract of E. coli expressing the candidate). The note with it: 0.1 mM test substance, potassium phosphate buffer 50 mM pH 8, in the presence of NADP+ or NADPH. It is filed as biochemical. The method, then:
The expression was performed in 50 ml of LB medium. For the preparation of preculture, one colony on an LB agar plate was picked and incubated overnight at 37° C. and 160 Rpm in 5 ml of LB medium (contains relevant antibiotics) a. The 50 ml of LB medium (contains relevant antibiotics) was inoculated with 500 pi of preculture. The culture was incubated at 37° C. and 160 Rpm. Up to OD600 ca. 0.8, expression was induced by addition of 0.5 mM IPTG. After 6 hrs or one night, the cells were centrifuged down. The pellets were resuspended in 6 ml of potassium phosphate buffer (50 mM, pH 8, contains 0.1 mM PMSF) and disintegrated with ultrasound. The cell fragments were removed by centrifugation.
For the identification of 7β-HSDH activity the activity was tested by photometric methods. For this, enzyme and 0.1 mM of test substance (UDCA) in potassium phosphate buffer (50 mM, pH 8) were mixed in a 1 ml cuvette. After addition of NADPH(NADH) or NADP^+ (NAD^+), the degradation or formation of NAD(P)H was measured.

The target in assay [2] is T1, 7β-HSDH from Collinsella aerofaciens DSM 3979 (Collinsella aerofaciens, UniProt A4ECA9). The assay is described as follows: Preparative biotransformation of 7-keto-LCA by 7β-HSDH with ADH cofactor regeneration, HPLC analysis. The note with it: 0.4 g 7-keto-LCA, 100 U 7β-HSDH, 24° C., 24 hours, pH 8. The assay is classed as biochemical. The method, then:
The conversion of 7-keto-LCA by 7β-HSDH was performed in order to verify the biochemical function of 7β-HSDH. 0.4 g of 7-keto-LCA were suspended in 10 ml of potassium phosphate buffer (50 mM, pH 8) and the pH was adjusted to pH 8 by addition of 2M sodium hydroxide. 0.2 ml of isopropanol, 100 U of 7β-HSDH and 80 U of alcohol dehydrogenase (ADH-TE) from Thermoanaerobacter ethanolicus (kindly donated by Dr. K. Momoi, ITB University, Stuttgart) and 1 μmol NADP^+ were added. The same buffer was added, so as to obtain a total reaction volume of 20 ml. The reaction mixture was incubated at 24° C. and stirred for 24 hours. During this, NADPH was regenerated by means of ADH via the oxidation of 2-propanol. […]
An HPLC analysis was performed on a column of the Purospher® STAR RP-18 type (Hitbar® RT 125-4 Pre-Packed Column, Purospher® STAR RP-18 endcapped, Merck, Germany), equipped with a precolumn of the LiChroCART® STAR RP18 type (endcapped, Merck, Germany) on an LC20AD HPLC system (Shimadzu, Japan) at a flow rate of 1 ml/min. […] 20 μl sample (1 mg/ml) were analyzed. […]
To confirm the function of the enzyme, a biotransformation of 7-keto-LCA on the […] was performed, wherein the isolated enzyme was used in combination with ADH for the regeneration of NADPH with the use of 2-propanol, as already described. […] CDCA (retention time 19.4 min) was not detected in the reaction mixture.

Assay [3] addresses T1, 7β-HSDH from Collinsella aerofaciens DSM 3979. It is filed as biochemical.
The test system of assay [4] is 7β-HSDH enzyme from C. aerofaciens ATCC25986 described by Hirano et al. More on the design: unit not given here. The note with it: enzyme of Hirano et al; cited from earlier work.

7β-HSDH from Collinsella aerofaciens ATCC 25986 (DSM 3979), sequence (A4ECA9 whole entry): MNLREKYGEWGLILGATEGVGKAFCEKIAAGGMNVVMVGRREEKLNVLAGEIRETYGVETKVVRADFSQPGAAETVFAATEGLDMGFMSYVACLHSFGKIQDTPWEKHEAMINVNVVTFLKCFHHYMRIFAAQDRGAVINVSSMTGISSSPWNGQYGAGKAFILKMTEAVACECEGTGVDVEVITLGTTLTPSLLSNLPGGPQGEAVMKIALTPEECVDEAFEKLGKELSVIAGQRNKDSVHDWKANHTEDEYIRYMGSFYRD
T1 sequence (A4ECA9 whole entry): as above

Consider `C[C@H](CCC(=O)O)[C@H]1CC[C@H]2[C@@H]3C(=O)C[C@@H]4C[C@H](O)CC[C@]4(C)[C@H]3CC[C@]12C` [7-keto-LCA, 7-keto-lithocholic acid], for which, in assay [1], the activity came out at 35 U/ml. The “conversion to UDCA” value in assay [2] is reported as 90%.

For `C[C@H](CCC(=O)O)[C@H]1CC[C@H]2[C@@H]3[C@H](O)C[C@@H]4C[C@H](O)CC[C@]4(C)[C@H]3C[C@H](O)[C@]12C` [CA, Cholic acid], the activity entry in assay [1] was “no activity; also recorded: not detectable”.

Consider `C[C@H](CCC(=O)O)[C@H]1CC[C@H]2[C@@H]3C(=O)C[C@@H]4CC(=O)CC[C@]4(C)[C@H]3CC(=O)[C@]12C` [DHCA, Dehydrocholic acid], for which, in assay [1], the activity was 119 U/ml.

Regarding `NC(=O)C1=CN([C@@H]2O[C@H](COP(=O)(O)OP(=O)(O)OC[C@H]3O[C@@H](n4cnc5c(N)ncnc54)[C@H](O)[C@@H]3O)[C@@H](O)[C@H]2O)C=CC1` [NADH], in assay [3], the activity as coenzyme entry is recorded as “very low activity” and the kcat result was “traces”.

On to `NC(=O)c1ccc[n+]([C@@H]2O[C@H](COP(=O)([O-])OP(=O)(O)OC[C@H]3O[C@@H](n4cnc5c(N)ncnc54)[C@H](OP(=O)(O)O)[C@@H]3O)[C@@H](O)[C@H]2O)c1` [NADP^+], for which the Vmax in assay [3] was 30.58 U/mg protein; in assay [4], 0.2.

As for `NC(=O)c1ccc[n+]([C@@H]2O[C@H](COP(=O)([O-])OP(=O)(O)OC[C@H]3O[C@@H](n4cnc5c(N)ncnc54)[C@H](O)[C@@H]3O)[C@@H](O)[C@H]2O)c1` [NAD^+], in assay [3], the activity as coenzyme result was “very low activity” and the kcat entry was “traces”.

Turning to `C[C@H](CCC(=O)O)[C@H]1CC[C@H]2[C@@H]3[C@@H](O)C[C@@H]4C[C@H](O)CC[C@]4(C)[C@H]3CC[C@]12C` [UDCA, Ursodeoxycholic acid], in assay [1], the activity was 60 U/ml.

For the compound NADPH, in assay [3], the Vmax came out at 33.44 U/mg protein and the kcat is given as 1033.44 1 μmol/(μmol × min).
